Test results taken from patent US20040110681A1, “Method to identify targeting molecules” (priority 2002, published 2004).
Positions of bridges follow the written chain, without caps; N, C: chain ends. Non-standard residues stand in square brackets, D forms with d. Residues, ends and D or L forms follow the SMILES beside them. hArg = N=C(N)NCCCC[C@H](N)C(=O)O; Mpa = O=C(O)CCS

Columns and labels:
[1] = system: platelets adhering to the pial vasculature; test: Intravital microscopy of platelet adhesion to pial vessels, LPS-induced model of sepsis
Experimental: The effect of the A3 mimetic of blood cell adhesion to brain vasculature was assessed by intravital microscopy. Platelets or leukocytes were fluorescently labeled and then the interaction of the labeled cells with the vascular endothelium imaged and analyzed pre and post the addition of various compounds. Platelets were isolated from blood of source animals by differential centrifugation at 200 g for 10 minutes, to pellet erythrocytes and leukocytes. The supernatant, designated platelet-rich plasma contained less than 0.5% leukocytes as determined by the number of DAPI-positive nucleated cells. The platelets were pelleted by spinning at 500 g, resuspended in Tyrode's buffer and incubated for 20 min with 5-,-6-carboxyfluorescein diacetate, succinimidyl ester (CFDA, or CFSE). 1×10^8 platelets in 0.1 ml were injected slowly over 5 minutes via a carotid catheter into anesthetized mice. […] Platelet rolling and adhesion was recorded for off-line analysis onto videotape or onto hard-drive of the computer via an intensified camera (Cascade, Roper Scientific) on a Leica DM-FSA upright microscope. […] Leukocytes are fluorescence-labeled in vivo by injecting Rhodamine 6G via a carotid catheter and analyzing the movement of the labeled cells on brain endothelium.
For the platelet studies a known antagonist of platelet-platelet interactions, Integrilin™ (Cor Therapeutics) was also evaluated. […]

[2] = Pharmacokinetic analysis, plasma half-life of fusion protein and free peptide; format: in vivo; settings: read-out: plasma t½
brain tissue = test: Individual peptide variants of A3 on phage, brain selectivity index vs T7-lacZ; format: in vivo, FVB or BALB/c mice; settings: 2 hours circulation; for Brain Targeting Activity: 0.5-1×10^10 pfu co-injected with T7-lacZ; for Selectivity index (FVB female) / Selectivity index (BALB/C mice): brain tissue; for Selectivity index (FVB female): FVB female mice
Experimental: In this example, various individual peptide variants of A3 were tested in vivo for their ability to target brain or other tissues. […] The phage contents of each organ were determined by plaque assay in the presence of X-gal (500 μg/mL) in top agar.
Thus, selectively indices of less than 10 are considered low, those between 10 and […] are considered moderate and those over 100 are considered high.

brain [3] = test: kSAR: co-injection of all 20 CAGAXCY (position 5) phage variants, sequence frequency in brain; format: in vivo, BALB/c mice
Experimental: To determine the optimum amino acid for position 5, all 20 variants at this position were injected. For co-injection of all 20 variants of CAGAXCY phage, individual phage were grown up and titered. Equivalent amounts of each phage type were added to PBS and 200 μL dose of the mixture was injected into 3 BALB/c mice per group (two time points of 30 minutes and 4 hours were studied, total of 6 mice). At 30 min and 4 hrs post injection, the mice were anesthetized, perfused and blood and brain were harvested. Aliquots of both the initial phage pool used for dosing as well as brain tissue samples were plated out, and approximately 100 individual plaques from each set were amplified by PCR using the T7 Super up primer method and sequenced using a CEQ 2000XL sequencer (Beckman Coulter, Calif.).
A total of 107 individual phage from the initial mixture used for dosing were sequenced to verify the relative abundance of the individual phage within the administered dose and these were compared with the relative frequency of the different phage recovered from brain after 30 minutes or 4 hours of circulation. There was a marked and rapid shift in frequency even by 30 minutes, where there was a marked enrichment of phage expressing N at the X5 position, (from 7% in the initial pool to 49%), M (from 5% to 24%) or L (2.8% to 12%) at 30 minutes.

brain [4] = test: Head to head comparison of CAGAXCY variants (L5, N5, M5) vs control lacZ phage; format: in vivo; settings: 6 hours after administration vs 2 hours
brain [5] = test: CX4CY phage library, one round of in vivo panning to brain; parameters: species or system BALB/c mice; settings: 4 hrs post phage injection
Experimental: A CX4CY library was prepared and tested. 1×10^10 pfu of the library phage were injected into 6 BALB/c mice (3 mice/time point). At 30 min and 4 hr post-injection, brain was harvested and processed as described above. Similar numbers of plaques were picked individually, and the insert sequence amplified by PCR and sequenced. Alignment analysis of the sequence data was performed with a version of Clustral/W.

[6] = 30 minutes after injection of 20-variant mixture
[7] = 4 hours after injection of 20-variant mixture

Compound | Brain Targeting Activity (brain tissue) | Selectivity index (FVB female) (brain tissue) | other results
N=C(N)NCCCC[C@@H]1NC(=O)CCSSC[C@@H](C(N)=O)NC(=O)[C@@H]2CCCN2C(=O)[C@H](Cc2c[nH]c3ccccc23)NC(=O)[C@H](CC(=O)O)NC(=O)CNC1=O [Integrilin] ([Mpa][hArg]GDWPC-NH2; disulfide 1-7) | – | – | platelet adhesion to pial vessels ([1]; 4 hours after i.p. 10 μg LPS, Integrilin at 40 mg/kg): slight antagonistic effect; DIC and adhesion of microaggregates to the brain vasculature ([1]; higher doses than 40 mg/kg): exacerbated DIC and adhesion of microaggregates to the brain vasculature
CC(C)C[C@@H]1NC(=O)[C@H](C)NC(=O)CNC(=O)[C@H](C)NC(=O)[C@@H](N)CSSC[C@@H](C(=O)N[C@@H](Cc2ccc(O)cc2)C(=O)O)NC1=O [free synthetic peptide, CAGALCY] (H-CAGALCY-OH; disulfide 1-6) | – | – | half-life [2]: 1 to 2 min
CAGAGCY | No | 1.1 | Brain Targeting Activity (brain tissue; listed as L5G): loss of brain targeting activity
CAGALC | No | 1.5 | –
CAGALCAY | brain targeting activity is lost and No | 1.4 | –
CAGALCF | Yes | >200 | Selectivity index (BALB/C mice) (brain tissue): 800
CAGALCS | loss of brain targeting activity and No | 3.0 | –
CAGALSY | brain targeting capacity is lost and No | 1.9 | –
CAGAMCY | – | – | frequency of phage variant recovered from brain (brain [3]; [6]): 24%; frequency of phage variant recovered from brain (brain [3]; [7]): 37%; change of brain SI values (brain [4]): increase further; enrichment among 83 sequences sampled from the brain (brain [5]): no enriched phage
CAGANCY | – | – | frequency of phage variant recovered from brain (brain [3]; [6]): 49%; frequency of phage variant recovered from brain (brain [3]; [7]): 55%; change of brain SI values (brain [4]): slight decrease; enrichment among 83 sequences sampled from the brain (brain [5]): no enriched phage
CAGAPCY | brain targeting capacity is lost and No | 7.6 | –
CAGDSMCY [reference compound] | negative and No | – | Selectivity index (BALB/C mice) (brain tissue): 0.9
CAGGLCY | No | 0.9 | Brain Targeting Activity (brain tissue; listed as A4G): loss of brain targeting activity
CALCY | No | 0.8 | –
CDITEYC [reference compound] | No | 0.4 | Selectivity index (BALB/C mice) (brain tissue): 1
CGADALCY | No | – | Selectivity index (BALB/C mice) (brain tissue): 1
CGALCY | No | 0.8 | –
CGFDMPC [reference compound] | No | 0.5 | –
CGGALCY | No | 0.7 | Brain Targeting Activity (brain tissue; listed as A2G): loss of brain targeting activity
CLCY | No | 3.5 | –
CPADCY [reference compound] | No | 0.3 | –
CRDVNECD [reference compound] | No | 0.3 | Selectivity index (BALB/C mice) (brain tissue): 1
CYGDPC [reference compound] | No | 0.8 | –
YCDAPC [reference compound] | No | 0.7 | –
